Assay results taken from ChEMBL document CHEMBL5723587, “Data for DCP probe BI-113823” (2024).

Columns and labels:
[1] = biological target: Sigma intracellular receptor 2 (Rattus norvegicus) (UniProt Q5U3Y7); assay: Activity against SIGMA2/R in the Eurofins SafetyScreen44 (BI) by Radioactive Assay; settings: Compound concentration 10.0 uM
[2] = biological target: Glutamate NMDA receptor (Rattus norvegicus) (UniProt P35439+Q00959+Q00960+Q00961+Q62645+Q8VHN2+Q9R1M7); assay: Agonist activity in the Eurofins SafetyScreen44 (BI) against NMDAAGSI/RA by Radioactive Assay; type: protein-complex assay; settings: Compound concentration 10.0 uM
[3] = biological target: Estrogen receptor (Homo sapiens) (UniProt P03372); assay: Activity against ERALPHA/H in the Eurofins SafetyScreen44 (BI) by Radioactive Assay; settings: Compound concentration 10.0 uM
Sequence of Estrogen receptor (Homo sapiens) (P03372 whole entry): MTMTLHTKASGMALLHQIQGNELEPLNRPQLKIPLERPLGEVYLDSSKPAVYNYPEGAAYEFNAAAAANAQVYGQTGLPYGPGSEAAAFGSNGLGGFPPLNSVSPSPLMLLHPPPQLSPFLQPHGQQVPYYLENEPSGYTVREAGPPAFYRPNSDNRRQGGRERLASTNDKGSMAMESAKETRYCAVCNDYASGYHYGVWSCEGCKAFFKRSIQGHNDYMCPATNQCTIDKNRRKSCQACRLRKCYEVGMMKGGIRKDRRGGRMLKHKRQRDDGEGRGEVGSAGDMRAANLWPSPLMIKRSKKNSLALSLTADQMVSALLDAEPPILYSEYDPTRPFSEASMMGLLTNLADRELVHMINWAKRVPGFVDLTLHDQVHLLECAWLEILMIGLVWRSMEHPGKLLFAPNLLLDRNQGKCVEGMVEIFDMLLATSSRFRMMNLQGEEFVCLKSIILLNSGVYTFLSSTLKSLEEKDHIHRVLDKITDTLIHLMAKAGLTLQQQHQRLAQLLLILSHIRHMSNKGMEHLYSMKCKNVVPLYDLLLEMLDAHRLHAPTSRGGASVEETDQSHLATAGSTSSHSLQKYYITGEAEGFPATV

[4] = biological target: B2 bradykinin receptor (Homo sapiens, UniProt P30411); assay: Radioligand binding assay (displacement of kallidin, human BDKRB2 ) at 10 µM ( Non-specific binding is estimated in the presence of 10 µM Des-Arg9- (Leu8)-Bradykinin. Membranes are filtered and washed, the filters are then counted to determine [3H]Kallidin[des-Arg10, Leu9] specifically bound.); parameters: compound concentration 10 uM
[5] = biological target: B2 bradykinin receptor (Homo sapiens) (UniProt P30411); assay: Activity against B2/HU in the Eurofins SafetyScreen44 (BI) by Radioactive Assay; settings: Compound concentration 10.0 uM
[6] = biological target: Sodium-dependent noradrenaline transporter (Homo sapiens) (UniProt P23975); assay: Activity against NETRANS/H in the Eurofins SafetyScreen44 (BI) by Radioactive Assay; settings: Compound concentration 10.0 uM
[7] = biological target: Muscarinic acetylcholine receptor M2 (Homo sapiens) (UniProt P08172); assay: Activity against M2/HU in the Eurofins SafetyScreen44 (BI) by Radioactive Assay; settings: Compound concentration 10.0 uM
[8] = biological target: Melatonin receptor type 1A (Homo sapiens) (UniProt P48039); assay: Activity against MT1/H in the Eurofins SafetyScreen44 (BI) by Radioactive Assay; settings: Compound concentration 10.0 uM
[9] = biological target: Type-1 angiotensin II receptor (Homo sapiens) (UniProt P30556); assay: Activity against AT1/HU in the Eurofins SafetyScreen44 (BI) by Radioligand Binding; settings: Compound concentration 10.0 uM
[10] = biological target: Sodium- and chloride-dependent GABA transporter 1 (Rattus norvegicus) (UniProt P23978); assay: Activity against GABATRANS/RA in the Eurofins SafetyScreen44 (BI) by Radioactive Assay; settings: Compound concentration 10.0 uM
[11] = biological target: Glutamate receptor ionotropic, NMDA 1 (Rattus norvegicus) (UniProt P35439); assay: Inhibitor of NMDAGLSI/RA in the Eurofins SafetyScreen44 (BI) by Scintillation counting; settings: Compound concentration 10.0 uM
[12] = biological target: Alpha-2A adrenergic receptor (Homo sapiens) (UniProt P08913); assay: Activity against ALPHA2A/H in the Eurofins SafetyScreen44 (BI) by Radioactive Assay; settings: Compound concentration 10.0 uM
[13] = biological target: Pyroglutamylated RF-amide peptide receptor (Homo sapiens) (UniProt Q96P65); assay: Activity against GPR103 in the Eurofins SafetyScreen44 (BI) by Radioactive Assay; settings: Compound concentration 10.0 uM
Sequence of Pyroglutamylated RF-amide peptide receptor (Homo sapiens) (Q96P65 whole entry): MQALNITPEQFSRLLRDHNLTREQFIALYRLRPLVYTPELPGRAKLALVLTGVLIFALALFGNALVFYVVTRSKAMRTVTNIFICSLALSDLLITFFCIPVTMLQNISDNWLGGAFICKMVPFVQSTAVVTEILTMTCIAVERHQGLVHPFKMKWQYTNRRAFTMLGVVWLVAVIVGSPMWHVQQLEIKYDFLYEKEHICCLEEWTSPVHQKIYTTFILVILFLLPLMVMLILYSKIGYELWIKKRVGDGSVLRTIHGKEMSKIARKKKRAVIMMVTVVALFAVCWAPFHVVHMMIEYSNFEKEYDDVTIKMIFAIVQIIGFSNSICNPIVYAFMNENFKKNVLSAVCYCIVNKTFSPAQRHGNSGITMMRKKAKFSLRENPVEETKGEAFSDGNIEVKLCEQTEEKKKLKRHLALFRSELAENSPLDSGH

[14] = biological target: P2Y purinoceptor 1 (Rattus norvegicus) (UniProt P49651); assay: Activity against P2Y/RAT in the Eurofins SafetyScreen44 (BI) by Radioactive Assay; settings: Compound concentration 10.0 uM
Sequence of P2Y purinoceptor 1 (Rattus norvegicus) (P49651 whole entry): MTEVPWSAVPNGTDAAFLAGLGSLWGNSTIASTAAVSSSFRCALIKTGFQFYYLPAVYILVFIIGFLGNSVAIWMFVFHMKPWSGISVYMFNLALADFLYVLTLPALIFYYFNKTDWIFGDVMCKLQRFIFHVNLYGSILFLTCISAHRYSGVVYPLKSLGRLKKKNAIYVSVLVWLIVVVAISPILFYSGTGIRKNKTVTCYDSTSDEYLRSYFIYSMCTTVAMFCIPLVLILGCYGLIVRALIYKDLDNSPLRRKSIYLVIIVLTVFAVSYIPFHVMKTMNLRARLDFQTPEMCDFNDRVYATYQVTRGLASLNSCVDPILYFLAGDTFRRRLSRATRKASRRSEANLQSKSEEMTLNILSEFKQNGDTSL

[15] = biological target: Kappa-type opioid receptor (Homo sapiens) (UniProt P41145); assay: Activity against KAPPA/HU in the Eurofins SafetyScreen44 (BI) by Radioactive Assay; settings: Compound concentration 10.0 uM
Sequence of Kappa-type opioid receptor (Homo sapiens) (P41145 whole entry): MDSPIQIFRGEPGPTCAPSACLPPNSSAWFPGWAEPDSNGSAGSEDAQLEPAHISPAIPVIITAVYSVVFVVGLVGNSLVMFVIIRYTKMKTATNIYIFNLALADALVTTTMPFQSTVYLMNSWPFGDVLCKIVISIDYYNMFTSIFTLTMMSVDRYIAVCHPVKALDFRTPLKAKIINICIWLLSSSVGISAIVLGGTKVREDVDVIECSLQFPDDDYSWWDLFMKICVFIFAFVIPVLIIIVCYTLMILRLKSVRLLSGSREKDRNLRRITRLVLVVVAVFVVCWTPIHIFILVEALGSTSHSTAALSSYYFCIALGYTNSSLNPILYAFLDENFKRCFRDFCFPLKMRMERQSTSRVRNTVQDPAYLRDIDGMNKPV

[16] = biological target: Adenosine receptor A1 (Homo sapiens) (UniProt P30542); assay: Activity against A1/HU in the Eurofins SafetyScreen44 (BI) by Radioactive Assay; settings: Compound concentration 10.0 uM
[17] = biological target: Adenosine receptor A2a (Homo sapiens) (UniProt P29274); assay: Activity against A2A/HU in the Eurofins SafetyScreen44 (BI); settings: Compound concentration 10.0 uM
[18] = biological target: Histamine H3 receptor (Homo sapiens) (UniProt Q9Y5N1); assay: Activity against H3/H in the Eurofins SafetyScreen44 (BI) by Radioactive Assay; settings: Compound concentration 10.0 uM
Sequence of Histamine H3 receptor (Homo sapiens) (Q9Y5N1 whole entry): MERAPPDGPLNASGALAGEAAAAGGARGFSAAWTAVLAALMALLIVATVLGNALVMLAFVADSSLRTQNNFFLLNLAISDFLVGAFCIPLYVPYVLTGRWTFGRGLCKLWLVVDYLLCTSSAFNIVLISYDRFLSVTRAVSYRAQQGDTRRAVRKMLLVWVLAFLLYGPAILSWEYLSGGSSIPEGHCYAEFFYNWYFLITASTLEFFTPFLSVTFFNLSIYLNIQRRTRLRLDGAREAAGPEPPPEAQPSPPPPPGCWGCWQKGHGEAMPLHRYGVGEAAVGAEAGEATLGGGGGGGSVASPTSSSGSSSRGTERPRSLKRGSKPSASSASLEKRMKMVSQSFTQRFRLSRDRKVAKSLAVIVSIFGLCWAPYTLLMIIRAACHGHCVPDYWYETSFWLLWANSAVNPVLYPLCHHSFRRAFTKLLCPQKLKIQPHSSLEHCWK

[19] = biological target: Androgen receptor (Rattus norvegicus) (UniProt P15207); assay: Activity against TESTOST/RA in the Eurofins SafetyScreen44 (BI) by Others; settings: Compound concentration 10.0 uM
[20] = biological target: D(4) dopamine receptor (Homo sapiens) (UniProt P21917); assay: Activity against D4.2/H in the Eurofins SafetyScreen44 (BI) by Radioactive Assay; settings: Compound concentration 10.0 uM
Sequence of D(4) dopamine receptor (Homo sapiens) (P21917 whole entry): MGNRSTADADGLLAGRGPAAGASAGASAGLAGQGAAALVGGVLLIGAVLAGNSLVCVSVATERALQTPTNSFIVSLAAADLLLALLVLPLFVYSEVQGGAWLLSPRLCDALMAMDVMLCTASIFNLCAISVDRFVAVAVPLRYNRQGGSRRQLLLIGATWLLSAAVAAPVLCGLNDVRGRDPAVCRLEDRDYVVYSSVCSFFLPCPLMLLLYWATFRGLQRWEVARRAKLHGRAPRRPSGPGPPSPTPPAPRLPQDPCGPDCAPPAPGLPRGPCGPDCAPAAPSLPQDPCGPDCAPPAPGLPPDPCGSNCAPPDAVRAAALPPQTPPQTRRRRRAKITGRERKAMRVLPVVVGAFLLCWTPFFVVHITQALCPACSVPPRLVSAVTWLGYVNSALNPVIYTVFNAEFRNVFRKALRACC

[21] = biological target: Interleukin-1 receptor type 1 (Mus musculus) (UniProt P13504); assay: Activity against IL-1ALPHA/M in the Eurofins SafetyScreen44 (BI) by Others; settings: Compound concentration 10.0 uM
[22] = biological target: Acetylcholine receptor subunit alpha (Homo sapiens) (UniProt P02708); assay: Activity against NACH/H in the Eurofins SafetyScreen44 (BI) by Radioligand Binding; settings: Compound concentration 10.0 uM
[23] = biological target: Mu-type opioid receptor (Homo sapiens) (UniProt P35372); assay: Activity against MU/HU in the Eurofins SafetyScreen44 (BI) by Radioactive Assay; settings: Compound concentration 10.0 uM
[24] = biological target: Endothelin-1 receptor (Homo sapiens) (UniProt P25101); assay: Activity against ETA/HU in the Eurofins SafetyScreen44 (BI) by Radioactive Assay; settings: Compound concentration 10.0 uM
Sequence of Endothelin-1 receptor (Homo sapiens) (P25101 whole entry): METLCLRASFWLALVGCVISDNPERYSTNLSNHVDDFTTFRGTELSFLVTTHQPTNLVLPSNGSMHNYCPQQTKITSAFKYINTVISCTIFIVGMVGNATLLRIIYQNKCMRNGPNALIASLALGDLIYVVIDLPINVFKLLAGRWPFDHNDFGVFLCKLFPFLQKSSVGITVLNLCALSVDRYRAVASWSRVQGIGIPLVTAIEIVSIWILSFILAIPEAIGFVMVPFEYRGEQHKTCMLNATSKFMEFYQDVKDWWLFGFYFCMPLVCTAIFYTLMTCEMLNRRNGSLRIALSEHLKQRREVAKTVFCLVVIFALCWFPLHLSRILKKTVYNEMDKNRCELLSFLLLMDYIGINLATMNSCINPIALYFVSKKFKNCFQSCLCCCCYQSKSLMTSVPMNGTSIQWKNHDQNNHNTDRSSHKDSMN

[25] = biological target: 5-hydroxytryptamine receptor 1A (Homo sapiens) (UniProt P08908); assay: Activity against 5HT1A/HU in the Eurofins SafetyScreen44 (BI) by Radioactive Assay; settings: Compound concentration 10.0 uM
Sequence of 5-hydroxytryptamine receptor 1A (Homo sapiens) (P08908 whole entry): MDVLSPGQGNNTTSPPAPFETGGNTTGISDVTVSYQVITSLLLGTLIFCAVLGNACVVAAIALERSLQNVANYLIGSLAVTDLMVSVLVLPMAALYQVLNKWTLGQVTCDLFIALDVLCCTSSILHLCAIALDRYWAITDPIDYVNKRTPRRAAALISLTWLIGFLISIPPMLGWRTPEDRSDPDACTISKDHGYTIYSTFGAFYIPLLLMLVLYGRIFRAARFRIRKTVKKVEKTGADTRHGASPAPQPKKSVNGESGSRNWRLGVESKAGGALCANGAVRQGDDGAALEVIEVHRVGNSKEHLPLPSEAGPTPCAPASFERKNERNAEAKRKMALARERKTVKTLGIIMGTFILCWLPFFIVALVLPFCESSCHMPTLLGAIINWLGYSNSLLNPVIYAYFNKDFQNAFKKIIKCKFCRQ

[26] = Activity against I2/CENTR/R in the Eurofins SafetyScreen44 (BI) by Radioactive Assay; settings: Rattus norvegicus; Compound concentration 10.0 uM
[27] = biological target: P2X purinoceptor (Oryctolagus cuniculus) (UniProt G1U3D6); assay: Activity against P2X/RB in the Eurofins SafetyScreen44 (BI) by Radioactive Assay; settings: Compound concentration 10.0 uM
Sequence of P2X purinoceptor (Oryctolagus cuniculus) (G1U3D6 as listed by the source): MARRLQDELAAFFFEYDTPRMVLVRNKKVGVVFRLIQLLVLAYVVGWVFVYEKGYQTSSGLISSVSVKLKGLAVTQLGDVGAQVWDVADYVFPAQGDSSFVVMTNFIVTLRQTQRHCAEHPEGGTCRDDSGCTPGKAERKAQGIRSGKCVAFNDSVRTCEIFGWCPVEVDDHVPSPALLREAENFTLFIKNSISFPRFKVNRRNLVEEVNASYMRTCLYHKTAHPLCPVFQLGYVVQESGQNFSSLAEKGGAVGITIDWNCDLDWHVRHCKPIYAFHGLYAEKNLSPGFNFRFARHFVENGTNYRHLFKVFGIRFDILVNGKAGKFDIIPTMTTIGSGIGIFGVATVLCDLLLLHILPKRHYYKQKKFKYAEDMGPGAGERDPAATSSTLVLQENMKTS

[28] = biological target: Glutamate receptor ionotropic, NMDA 2A (Rattus norvegicus) (UniProt Q00959); assay: Activity against NMDAPHSI/R in the Eurofins SafetyScreen44 (BI) by Radioactive Assay; settings: Compound concentration 10.0 uM
[29] = biological target: L-type calcium channel, Cav1.2 alpha-1C (CA+/DILSI/RA) (Rattus norvegicus, UniProt P22002); assay: Activity against CA+/DILSI/RA in the Eurofins SafetyScreen44 (BI) by Radioactive Assay; settings: compound concentration 10 uM, read-out: % Ctrl
[30] = biological target: ATP-sensitive inward rectifier potassium channel 1 isoform X1 (Mesocricetus auratus) (UniProt A0A1U8CU73); assay: Activity against K+/KATP/HA in the Eurofins SafetyScreen44 (BI) by Radioactive Assay; settings: Cricetinae; Compound concentration 10.0 uM
Sequence of ATP-sensitive inward rectifier potassium channel 1 isoform X1 (Mesocricetus auratus) (A0A1U8CU73 as listed by the source): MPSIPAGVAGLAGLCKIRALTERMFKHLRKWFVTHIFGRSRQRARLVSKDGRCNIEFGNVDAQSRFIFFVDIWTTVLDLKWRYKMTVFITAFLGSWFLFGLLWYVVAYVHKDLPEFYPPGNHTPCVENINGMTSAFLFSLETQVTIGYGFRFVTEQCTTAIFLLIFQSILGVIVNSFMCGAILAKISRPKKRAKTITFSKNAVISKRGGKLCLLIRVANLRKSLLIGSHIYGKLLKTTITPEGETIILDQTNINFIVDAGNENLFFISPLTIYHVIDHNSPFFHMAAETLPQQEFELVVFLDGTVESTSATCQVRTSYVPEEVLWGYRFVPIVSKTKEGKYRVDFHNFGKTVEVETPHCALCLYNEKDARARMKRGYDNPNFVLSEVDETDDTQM

[31] = biological target: Beta-2 adrenergic receptor (Homo sapiens) (UniProt P07550); assay: Activity against BETA2/HU in the Eurofins SafetyScreen44 (BI) by Radioactive Assay; settings: Compound concentration 10.0 uM
Sequence of Beta-2 adrenergic receptor (Homo sapiens) (P07550 whole entry, looked up): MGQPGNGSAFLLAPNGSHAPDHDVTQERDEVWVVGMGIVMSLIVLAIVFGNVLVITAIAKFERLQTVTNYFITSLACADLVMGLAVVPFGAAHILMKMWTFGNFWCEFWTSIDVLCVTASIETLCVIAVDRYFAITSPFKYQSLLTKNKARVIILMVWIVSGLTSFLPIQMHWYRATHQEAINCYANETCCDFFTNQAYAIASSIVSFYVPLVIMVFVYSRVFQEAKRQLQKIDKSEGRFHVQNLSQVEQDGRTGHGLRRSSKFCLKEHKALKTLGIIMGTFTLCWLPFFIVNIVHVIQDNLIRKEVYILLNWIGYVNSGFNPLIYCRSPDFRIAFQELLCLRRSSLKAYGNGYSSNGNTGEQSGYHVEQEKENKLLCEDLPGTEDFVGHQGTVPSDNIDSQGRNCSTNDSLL

[32] = biological target: 5-hydroxytryptamine receptor 3A (Homo sapiens) (UniProt P46098); assay: Activity against 5HT3/HU in the Eurofins SafetyScreen44 (BI) by Others; settings: Compound concentration 10.0 uM
[33] = biological target: Sodium-dependent dopamine transporter (Homo sapiens) (UniProt Q01959); assay: Inhibitor of DATRANS/H in the Eurofins SafetyScreen44 (BI) by Radioactive Assay; settings: Compound concentration 10.0 uM
[34] = biological target: Alpha-1B adrenergic receptor (Rattus norvegicus) (UniProt P15823); assay: Activity against ALPHA1B/R in the Eurofins SafetyScreen44 (BI) by Radioactive Assay; settings: Compound concentration 10.0 uM
[35] = biological target: Neuropeptide Y receptor type 1 (Homo sapiens) (UniProt P25929); assay: Activity against Y1/HU in the Eurofins SafetyScreen44 (BI) by Radioactive Assay; settings: Compound concentration 10.0 uM

Sequence of Sigma intracellular receptor 2 (Rattus norvegicus) (Q5U3Y7 whole entry): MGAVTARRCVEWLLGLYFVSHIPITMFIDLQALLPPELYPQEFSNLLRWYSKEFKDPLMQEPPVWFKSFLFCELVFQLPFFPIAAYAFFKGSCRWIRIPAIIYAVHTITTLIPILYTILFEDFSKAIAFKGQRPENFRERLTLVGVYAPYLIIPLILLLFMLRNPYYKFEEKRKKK

COc1cc(C)c(S(=O)(=O)N(C)CCOCC(=O)N(C)[C@H]2CCC[C@@H](N3CCN(C)CC3)C2)c(C)c1
residual activity [1]: 45% | residual activity [2]: 92% | residual activity [3]: 104% | Ki [4]: > 10 µM (not active) | residual activity [5]: 108% | residual activity [6]: 114% | residual activity [7]: 61% | residual activity [8]: 97% | residual activity [9]: 115% | residual activity [10]: 119% | residual activity [11]: 93% | residual activity [12]: 85% | residual activity [13]: 105% | residual activity [14]: 108% | residual activity [15]: 99% | residual activity [16]: 99% | residual activity [17]: 97% | residual activity [18]: 77% | residual activity [19]: 96% | residual activity [20]: 101% | residual activity [21]: 79% | residual activity [22]: 100% | residual activity [23]: 91% | residual activity [24]: 96% | residual activity [25]: 99% | residual activity [26]: 60% | residual activity [27]: 100% | residual activity [28]: 111% | activity at 10 µM [29]: 86% (not active) | residual activity [30]: 90% | residual activity [31]: 103% | residual activity [32]: 91% | residual activity [33]: 103% | residual activity [34]: 96% | residual activity [35]: 109%
